Values after ≈ are worked out from the molar mass of the structure shown. Like-named read-outs stand apart in the source and are kept apart here.
Experiments:
Polio = format: cell-based, poliovirus; conditions: Polio primary, SI50 = CC50/EC50
[1] = system: Mycobacterium tuberculosis; conditions: Hwang et al., J. Nat. Prod. 76: 1916-1922 (2013); cited from earlier work
Ebola = format: cell-based, Ebola virus; conditions: SI50 = CC50/EC50
[2] = system: Flu A (H5N1) Vietnam/1203/2004H; experiment: microbe, parasite or virus in culture; format: cell-based, Influenza A
[3] = system: Flu A (H3N2) Wisconsin/67/2005; experiment: microbe, parasite or virus in culture; format: cell-based, Influenza A; conditions: for Cntrl SI: Ribavirin control, Flu A (H3N2)
Flu B Shanghai/361/02 = experiment: Influenza B antiviral assay in MDCK cells (BioShield, NIH contract labs); format: cell-based; conditions: for EC50: Influenza B virus, read-out: Cntrl EC50; for EC50 / Cntrl SI: Ribavirin control, Flu B
From the text: Following the Project BioShield Act of 2004, Fungi Perfecti, LLC submitted over 200 hot water fruitbody and aqueous ethanolic extracts of the in vitro grown mycelia of mushroom species and strains within to the BioShield BioDefense Program administered by the U.S. Army Medical Research Institute of Infectious Diseases ([…]) and the National Institutes of Health (NIH). Submitted samples were screened for antiviral activity coordinated through the Southern Research Institute (SRI). From the more than 200 samples the inventor provided to BioShield, 2,392 antiviral assays were performed on behalf of the inventor; 1,042 of which were influenza tests.
The protocols for determining antiviral activity are fully described by the National Institutes of Allergy and Infectious Diseases (NIAID) by Greenstone et al., NIAID resources for developing new therapies for severe viral infections, Antiviral Res., Volume 78, Issue 1, April 2008, Pages 51-59, hereby incorporated by reference in its entirety. The influenza bioassays were conducted according to Sidwell, R W and Smee, D F, In vitro and in vivo assay systems for study of influenza virus inhibitors, Antiviral Res., October 2000, 48(1):1-16., hereby incorporated by reference in its entirety.

in vitro = conditions: dog
Human papillomavirus 11 = format: cell-based, human papillomavirus (HPV)
Norovirus = format: cell-based, norovirus (Norwalk); design: unit not given beside the values
[4] = oral ingestion; cited from earlier work
HSV-1 = experiment: microbe, parasite or virus in culture; format: cell-based, Herpes Simplex; conditions: Human alphaherpesvirus 1, HFF, read-out: Cntrl EC50
[5] = system: laccase activity of Trametes sp. 1-62; conditions: Terron et al. 2004; cited from earlier work
[6] = within the human body; cited from earlier work

Structure (SMILES): O=c1cc(-c2ccccc2)oc2cc(O)cc(O)c12 [Chrysin]
- SI50 (Polio): Polio primary: SI50 > 15 (Control pirodavir SI50 > 22)
- SI50 (Polio; listed as chrysin): > 15

Structure (SMILES): CCOC(=O)c1c(-c2ccccc2)c2ccc(Cl)cc2oc1=O [Ethyl 7-chloro-2-oxo-4-phenyl-2H-chromen-3-carboxylate]
- activity against Mycobacterium tuberculosis [1]: active

Structure (SMILES): CC(=O)/C=C(O)\C=C\c1ccc(O)c(O)c1 [Hispolon]
- SI50 (Ebola): > 5.3
- activity against Mycobacterium tuberculosis [1]: active

Structure (SMILES): NC(=O)c1ncn([C@@H]2O[C@H](CO)[C@@H](O)[C@H]2O)n1 [Ribavirin]
- EC50 ([2]; Influenza A virus, H5N1, MDCK, read-out: Cntrl EC50, Ribavirin control, Neutral Red): 12 µg/mL (≈ 49.1 µM)
- Cntrl SI ([2]; Ribavirin control, Neutral Red): >27
- EC50 ([3]; Influenza A virus, H3N2, MDCK, read-out: Cntrl EC50): 2 µg/mL (≈ 8.19 µM)
- Cntrl SI ([3]; Neutral Red): >160
- Cntrl SI ([3]; Visual): >170
- EC50 (Flu B Shanghai/361/02; MDCK, Neutral Red): 7.1 µg/mL (≈ 29.1 µM)
- EC50 (Flu B Shanghai/361/02; MDCK, Visual-CONF): 1.7 µg/mL (≈ 6.96 µM)
- EC50 (Flu B Shanghai/361/02; MDCK, Visual): 1.7 µg/mL (≈ 6.96 µM)
- EC90 (Flu B Shanghai/361/02; MDCK, read-out: Cntrl EC90): 37.7 µg/mL (≈ 154 µM)
- Cntrl SI (Flu B Shanghai/361/02; Neutral Red): >45
- Cntrl SI (Flu B Shanghai/361/02; Visual): >190
- Cntrl SI (Flu B Shanghai/361/02; Visual-CONF): >190
- IC50 (in vitro): > 320 µg/mL

Structure (SMILES): C[C@@H]1O[C@@H](OC[C@H]2O[C@@H](Oc3c(-c4ccc(O)c(O)c4)oc4cc(O)cc(O)c4c3=O)[C@H](O)[C@@H](O)[C@@H]2O)[C@H](O)[C@H](O)[C@H]1O.O [Rutin hydrate]
- SI90 (Human papillomavirus 11): Human papillomavirus 11 primary: SI50 > 109 (Control cidofovir SI50 = 12), SI90 = 5 (Control cidofovir SI90 = 1)

Structure (SMILES): COc1cc(C(=O)O)ccc1O [Vanillic acid]
- SI50 (Norovirus): 1
- SI90 (Norovirus): 1
- time remaining in the blood stream post-digestion [4]: more than 11 hours

Structure (SMILES): Nc1nc2c(ncn2COCCO)c(=O)[nH]1 [acyclovir]
- EC50 (HSV-1): 0.3 µg/mL (≈ 1.33 µM)

Structure (SMILES): NC(=O)c1nc(F)c[nH]c1=O [favipiravir]
- SI50 (Ebola): > 10

Structure (SMILES): COc1ccccc1O [guaiacol]
- increase in laccase activity [5]: 73 fold

Structure (SMILES): O=C(O)/C=C/c1ccc(O)cc1 [p-coumaric acid]
- increase in laccase activity [5]: 273 fold

Structure (SMILES): COc1cc(C=O)ccc1O [vanillin]
- share of vanillin metabolized into vanillic acid [6]: up to 95%
